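Values below derive from 48-hour exposures of cells grown in 96-well plates, with endpoints linearly interpolated between the two concentrations bracketing the appropriate inhibition level. Here, GI50 denotes the concentration required for 50% inhibition of growth.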 Active and inactive are the calls of the source. Rule as the data show it: active = GI50 up to about 1.1 µM and inactive = higher.
How the values were obtained:
Experiment in all cases: NCI-60 cell line screen, 48 h
IGROV-1 = tested on: IGROV-1
OVCAR-4 = tested on: OVCAR-4
OVCAR-5 = tested on: OVCAR-5
DMS-273 = tested on: DMS-273
UACC-257 = tested on: UACC-257
COLO 205 = tested on: COLO 205
HOP-62 = tested on: HOP-62
LOX IMVI = tested on: LOX IMVI
SF-295 = tested on: SF-295
A549 = tested on: A549
KM12 = tested on: KM12
M19-MEL = tested on: M19-MEL
M14 = tested on: M14
KM-20L2 = tested on: KM-20L2
SR = tested on: SR
ACHN = tested on: ACHN
SF-539 = tested on: SF-539
HL-60 = tested on: HL-60
OVCAR-8 = tested on: OVCAR-8
HT-29 = tested on: HT-29
NCI-H23 = tested on: NCI-H23
TK-10 = tested on: TK-10
NCI-H460 = tested on: NCI-H460
NCI-H226 = tested on: NCI-H226
SW-620 = tested on: SW-620
SN12C = tested on: SN12C
UO-31 = tested on: UO-31
HCC 2998 = tested on: HCC 2998
K562 = tested on: K562
MOLT-4 = tested on: MOLT-4
U-251 = tested on: U-251
OVCAR-3 = tested on: OVCAR-3
786-0 = tested on: 786-0
LXFL 529 = tested on: LXFL 529
HCT-116 = tested on: HCT-116
XF498 = tested on: XF498
SNB-78 = tested on: SNB-78
SK-MEL-2 = tested on: SK-MEL-2
SNB-19 = tested on: SNB-19
HOP-92 = tested on: HOP-92
HCT-15 = tested on: HCT-15
SF-268 = tested on: SF-268
RPMI-8226 = tested on: RPMI-8226
SK-MEL-28 = tested on: SK-MEL-28
UACC-62 = tested on: UACC-62
CAKI-1 = tested on: CAKI-1
NCI-H522 = tested on: NCI-H522
Malme-3M = tested on: Malme-3M
SNB-75 = tested on: SNB-75
DLD-1 = tested on: DLD-1
SK-OV-3 = tested on: SK-OV-3
MCF7 = tested on: MCF7
MDA-MB-231 = tested on: MDA-MB-231
RXF 393 = tested on: RXF 393
PC-3 = tested on: PC-3
EKVX = tested on: EKVX
A498 = tested on: A498
DU-145 = tested on: DU-145
NCI/ADR-RES = tested on: NCI/ADR-RES
T47D = tested on: T47D
Hs-578T = tested on: Hs-578T
MDA-MB-435 = tested on: MDA-MB-435
CCRF-CEM = tested on: CCRF-CEM
SK-MEL-5 = tested on: SK-MEL-5
MDA-N = tested on: MDA-N
BT-549 = tested on: BT-549

With `CCc1nnc(S)n1/N=C/c1ccc(-c2ccc([N+](=O)[O-])cc2)o1` the GI50 (IGROV-1) was > 100 µM (inactive), the GI50 (OVCAR-4) was > 100 µM (inactive) and the GI50 (OVCAR-5) was > 100 µM (inactive). The GI50 (DMS-273) was > 100 µM (inactive), the GI50 (UACC-257) was > 100 µM (inactive) and the GI50 (COLO 205) was > 100 µM (inactive). For the same compound, the GI50 (HOP-62) was > 100 µM (inactive), the GI50 (LOX IMVI) was > 100 µM (inactive) and the GI50 (SF-295) was > 100 µM (inactive). The GI50 (A549) was > 100 µM (inactive), the GI50 (KM12) was > 100 µM (inactive) and the GI50 (M19-MEL) was > 100 µM (inactive). For the same compound, the GI50 (M14) was > 100 µM (inactive), the GI50 (KM-20L2) was > 100 µM (inactive) and the GI50 (SR) was > 100 µM (inactive). For the same compound, the GI50 (ACHN) was > 100 µM (inactive), the GI50 (SF-539) was > 100 µM (inactive) and the GI50 (HL-60) was > 100 µM (inactive). For the same compound, the GI50 (OVCAR-8) was > 100 µM (inactive), the GI50 (HT-29) was > 100 µM (inactive) and the GI50 (NCI-H23) was > 100 µM (inactive). For the same compound, the GI50 (TK-10) was > 100 µM (inactive), the GI50 (NCI-H460) was > 100 µM (inactive) and the GI50 (NCI-H226) was > 100 µM (inactive). For the same compound, the GI50 (SW-620) was > 100 µM (inactive), the GI50 (SN12C) was > 100 µM (inactive) and the GI50 (UO-31) was > 100 µM (inactive). For the same compound, the GI50 (HCC 2998) was > 100 µM (inactive), the GI50 (K562) was > 100 µM (inactive) and the GI50 (MOLT-4) was > 100 µM (inactive). The GI50 (U-251) was > 100 µM (inactive), the GI50 (OVCAR-3) was > 100 µM (inactive) and the GI50 (786-0) was > 100 µM (inactive). For the same compound, the GI50 (LXFL 529) was > 100 µM (inactive), the GI50 (HCT-116) was > 100 µM (inactive) and the GI50 (XF498) was > 100 µM (inactive). For the same compound, the GI50 (SNB-78) was > 100 µM (inactive), the GI50 (SK-MEL-2) was > 100 µM (inactive) and the GI50 (SNB-19) was > 100 µM (inactive). For the same compound, the GI50 (HOP-92) was > 100 µM (inactive), the GI50 (HCT-15) was over 100 µM and the GI50 (SF-268) was > 100 µM (inactive). The GI50 (RPMI-8226) was > 100 µM (inactive), the GI50 (SK-MEL-28) was > 100 µM (inactive) and the GI50 (UACC-62) was > 100 µM (inactive). For the same compound, the GI50 (CAKI-1) was > 100 µM (inactive), the GI50 (NCI-H522) was > 100 µM (inactive) and the GI50 (Malme-3M) was > 100 µM (inactive). For the same compound, the GI50 (SNB-75) was > 100 µM (inactive), the GI50 (DLD-1) was > 100 µM (inactive) and the GI50 (SK-OV-3) was > 100 µM (inactive).
With `Clc1ccc(C2NN=C3c4ccccc4OCC32)cc1` (stereo not given) the GI50 (MCF7) was 3.68 µM (inactive), the GI50 (IGROV-1) was 3.2 µM (inactive) and the GI50 (MDA-MB-231) was 2.39 µM (inactive). The GI50 (OVCAR-4) was 13.4 µM (inactive), the GI50 (OVCAR-5) was 8.87 µM (inactive) and the GI50 (UACC-257) was 9.46 µM (inactive). The GI50 (RXF 393) was 3.46 µM (inactive), the GI50 (COLO 205) was 2.96 µM (inactive) and the GI50 (PC-3) was 4.11 µM (inactive). The GI50 (HOP-62) was 6.71 µM (inactive), the GI50 (LOX IMVI) was 8.02 µM (inactive) and the GI50 (SF-295) was 2.11 µM (inactive). For the same compound, the GI50 (EKVX) was 3.59 µM (inactive), the GI50 (A549) was 5.41 µM (inactive) and the GI50 (A498) was 18.2 µM (inactive). The GI50 (KM12) was 3.64 µM (inactive), the GI50 (M14) was 2.84 µM (inactive) and the GI50 (SR) was 1.86 µM (inactive). For the same compound, the GI50 (ACHN) was 14.9 µM (inactive), the GI50 (SF-539) was 2.17 µM (inactive) and the GI50 (HL-60) was 3.15 µM (inactive). The GI50 (OVCAR-8) was 3.94 µM (inactive), the GI50 (HT-29) was 3.13 µM (inactive) and the GI50 (DU-145) was 14.9 µM (inactive). For the same compound, the GI50 (NCI-H23) was 4.39 µM (inactive), the GI50 (TK-10) was 22.8 µM (inactive) and the GI50 (NCI-H460) was 4.3 µM (inactive). The GI50 (NCI/ADR-RES) was 2.35 µM (inactive), the GI50 (NCI-H226) was 2.92 µM (inactive) and the GI50 (SW-620) was 3.64 µM (inactive). For the same compound, the GI50 (SN12C) was 5.73 µM (inactive), the GI50 (UO-31) was 7.16 µM (inactive) and the GI50 (HCC 2998) was 2.62 µM (inactive). The GI50 (K562) was 3.39 µM (inactive), the GI50 (MOLT-4) was 4.43 µM (inactive) and the GI50 (T47D) was 5.83 µM (inactive). For the same compound, the GI50 (U-251) was 4.09 µM (inactive), the GI50 (OVCAR-3) was 5.16 µM (inactive) and the GI50 (786-0) was 4.65 µM (inactive). For the same compound, the GI50 (Hs-578T) was 3.2 µM (inactive), the GI50 (HCT-116) was 2.81 µM (inactive) and the GI50 (MDA-MB-435) was 2.38 µM (inactive). For the same compound, the GI50 (CCRF-CEM) was 4.29 µM (inactive), the GI50 (SK-MEL-2) was 3.48 µM (inactive) and the GI50 (SNB-19) was 5.42 µM (inactive). For the same compound, the GI50 (SK-MEL-5) was 3.01 µM (inactive), the GI50 (HOP-92) was 19.6 µM (inactive) and the GI50 (HCT-15) was 3.08 µM. For the same compound, the GI50 (MDA-N) was 830 nM (active), the GI50 (SF-268) was 5.36 µM (inactive) and the GI50 (RPMI-8226) was 2.44 µM (inactive). The GI50 (SK-MEL-28) was 15.3 µM (inactive), the GI50 (UACC-62) was 5.07 µM (inactive) and the GI50 (CAKI-1) was 12.2 µM (inactive). The GI50 (BT-549) was 13.5 µM (inactive), the GI50 (NCI-H522) was 1.5 µM (inactive) and the GI50 (Malme-3M) was 3.15 µM (inactive). The GI50 (SNB-75) was 5.53 µM (inactive) and the GI50 (SK-OV-3) was 5.82 µM (inactive).

— ChEMBL document CHEMBL1201862, “PubChem BioAssay data set” (2004)
